The record followed here is PMC9229927, “New Alk(en)ylhydroxycyclohexanes with Tyrosinase Inhibition Potential from Harpephyllum caffrum Bernh. Gum Exudate” (Molecules, 2022).

Chain of mushroom tyrosinase (C7FF04 1-392): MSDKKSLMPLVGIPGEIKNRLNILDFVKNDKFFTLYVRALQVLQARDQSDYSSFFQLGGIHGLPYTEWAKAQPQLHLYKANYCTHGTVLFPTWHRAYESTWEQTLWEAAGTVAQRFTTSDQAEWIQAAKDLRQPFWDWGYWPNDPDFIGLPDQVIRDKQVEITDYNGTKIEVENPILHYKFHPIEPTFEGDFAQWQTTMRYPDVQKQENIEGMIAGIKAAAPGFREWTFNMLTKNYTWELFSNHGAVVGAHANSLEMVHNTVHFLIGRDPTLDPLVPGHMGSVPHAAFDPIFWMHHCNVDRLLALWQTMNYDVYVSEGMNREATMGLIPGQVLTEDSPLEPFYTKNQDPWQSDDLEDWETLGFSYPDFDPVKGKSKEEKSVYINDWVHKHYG

The target of this assay is mushroom tyrosinase (Agaricus bisporus, UniProt C7FF04). The assay is classed as biochemical. The procedure:
Tyrosinase inhibitory potential of alk(en)ylhydroxycyclohexanes has not been previously reported.
Tyrosinase inhibitory activity was determined spectrophotometrically with slight modifications. Briefly, tested samples were dissolved in DMSO to a final concentration of 20 mg/mL. In a 24-well plate, 30 μL of the samples was added to 970 μL of potassium phosphate buffer (0.1 M, pH 6.5) and serially diluted two-fold. The mixture (70 μL) was transferred to a 96-well plate containing 30 μL of potassium phosphate buffer (0.1 M, pH 6.5) to obtain increasing concentration range of (1.56–200 μg/mL). Then, 30 μL of mushroom tyrosinase solution (333 Units/mL in phosphate buffer, pH 6.5) was added to each mixture, which was then incubated at 25 °C for 5 min. Thereafter, 110 µL of 2 mM L-tyrosine was added in all wells of a 96-well microtiter plate and further incubated for 30 min at 25 °C. […] The absorbance of the mixture was read at 492 nm using an ELISA microplate reader (VarioSkan Flash, Thermo Fisher Scientific, Vantaa, Finland). All experiments were performed in triplicates. The percent inhibition of tyrosinase was calculated as follows: Tyrosinase inhibitory (%)=(Ao−A1/Ao) × 100 where A0 is the absorbance of the negative control with the enzyme without test samples, A1 is the absorbance of the test samples and enzyme.
Data were expressed as mean ± SD from three independent experiments. The IC50 values, corresponding to the concentration required to inhibit 50% of tyrosinase activity, were calculated from a sigmoidal dose–response of a non-linear regression and R-square values representing the best fit of the model were determined by Pearson nonlinear regression using the GraphPad Prism 5 software (GraphPad Software, San Diego, CA, USA). A one-way ANOVA was performed and differences between means were separated using the Tukey multiple comparison test at p < 0.05. Experiments were performed in triplicate.
For `CCCC/C=C\CCCCCCCCCCCc1cccc(O)c1` [Compound 1, 3-heptadec-12′-Z-enyl phenol], the “tyrosinase inhibition, rating in words” value was “moderately active”. As for `CCCC/C=C\CCCCCCCCCCC[C@@]1(O)CCC[C@@H](O)C1` [Compound 2, (1R,3R)-1,3-dihydroxy-3-[heptadec-12′(Z)-enyl]cyclohexane], the “tyrosinase inhibition, rating in words” value is given as “good inhibition”. `CCCC/C=C\CCCCCCCCCCCC[C@@]1(O)C[C@@H](O)[C@H](O)[C@@H](O)[C@H]1O` [Compound 3, (1S,2S,3S,4S,5R)-1,2,3,4,5-pentahydroxy-5-[octadec-13′(Z)-enyl]cyclohexane]: the “tyrosinase inhibition, rating in words” value is given as “good inhibition”.

As to `CCCC/C=C\CCCCCCCCCCC[C@]1(O)CC[C@@H](O)[C@H](O)C1` [Compound 4, (1R,2S,4R)-1,2,4-trihydroxy-4-[heptadec-12′(Z)-enyl]cyclohexane], the “tyrosinase inhibition, rating in words” value is “moderately active”.
